Activity calls are given as the source filed them.
What was measured:
[1] = target: T1, Short transient receptor potential channel 4 (Mus musculus, UniProt Q9QUQ5); test: potentiation of DAMGO-evoked TRPC4 calcium signal – cell-based, HEK293 TRPC4/mu-opioid, Fluo-4 calcium, EC20 DAMGO, dose response (AID 434941); assay type: functional
T1 sequence (Q9QUQ5 whole entry): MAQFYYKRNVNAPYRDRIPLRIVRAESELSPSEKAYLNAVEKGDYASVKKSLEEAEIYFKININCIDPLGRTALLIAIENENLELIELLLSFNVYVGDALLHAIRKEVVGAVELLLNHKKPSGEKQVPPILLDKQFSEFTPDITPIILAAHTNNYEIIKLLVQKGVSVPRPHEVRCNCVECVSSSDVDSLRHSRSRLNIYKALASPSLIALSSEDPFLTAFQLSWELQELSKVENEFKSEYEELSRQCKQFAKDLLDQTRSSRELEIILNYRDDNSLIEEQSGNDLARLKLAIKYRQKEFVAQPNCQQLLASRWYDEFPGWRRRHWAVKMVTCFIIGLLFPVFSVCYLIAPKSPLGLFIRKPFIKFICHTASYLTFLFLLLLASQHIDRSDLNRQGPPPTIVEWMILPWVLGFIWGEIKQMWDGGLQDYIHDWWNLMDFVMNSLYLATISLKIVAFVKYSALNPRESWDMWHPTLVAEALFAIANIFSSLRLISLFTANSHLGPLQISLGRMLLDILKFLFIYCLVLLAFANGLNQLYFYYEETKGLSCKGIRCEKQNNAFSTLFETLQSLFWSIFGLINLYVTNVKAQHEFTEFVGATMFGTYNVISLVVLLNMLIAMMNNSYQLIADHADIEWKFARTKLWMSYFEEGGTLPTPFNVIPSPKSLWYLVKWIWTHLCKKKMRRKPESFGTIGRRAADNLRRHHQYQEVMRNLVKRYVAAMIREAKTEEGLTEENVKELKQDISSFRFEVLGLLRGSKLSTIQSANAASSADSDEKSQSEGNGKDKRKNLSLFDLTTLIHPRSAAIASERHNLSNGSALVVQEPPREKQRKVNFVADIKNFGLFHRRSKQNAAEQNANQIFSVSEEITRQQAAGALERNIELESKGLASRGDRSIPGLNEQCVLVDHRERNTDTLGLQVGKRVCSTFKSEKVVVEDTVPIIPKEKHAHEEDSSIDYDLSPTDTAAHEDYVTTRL

[2] = target: DNA dC->dU-editing enzyme APOBEC-3A (Homo sapiens, UniProt P31941); test: A3A deaminase inhibition for selectivity – biochemical, dose response (AID 504722); assay type: functional
[3] = target: DNA dC->dU-editing enzyme APOBEC-3G (Homo sapiens, UniProt Q9HC16); test: Dose Response confirmation of small molecule APOBEC3G DNA Deaminase Inhibitors via a fluorescence-based single-stranded DNA deaminase assay. [Related pubchem assays (depositor defined):AID493012, AID493028]; assay type: functional
[4] = target: T2, Kappa-type opioid receptor (Homo sapiens, UniProt P41145); assay type: functional
[5] = target: Beta-galactosidase (Escherichia coli, UniProt Q8VNN2); assay type: functional
[6] = target: T2, Kappa-type opioid receptor; assay type: functional; remark: listed apart in the source
[7] = target: T2, Kappa-type opioid receptor; test: SAR analysis of small molecule agonists of the kappa opioid receptor via a luminescent beta-arrestin assay - Set 2. [Related pubchem assays (depositor defined):AID1777, AID1785, AID1786, AID1966, AID2133, AID2136, AID2284, AID449737]; assay type: functional
[8] = target: T3, Intestinal-type alkaline phosphatase (Homo sapiens, UniProt P09923); test: Dose Response confirmation of uHTS hits from a small molecule inhibitors of human intestinal alkaline phosphatase via a luminescent assay. [Related pubchem assays (depositor defined):AID2544, AID2574]; assay type: functional
[9] = target: Cytochrome P450 2C9 (Homo sapiens, UniProt P11712)
[10] = target: Eukaryotic translation initiation factor 4H (Homo sapiens, UniProt Q15056); test: inhibitors of translation initiation factor eIF4H – SAR follow-up (AID 435011); assay type: functional
[11] = target: Polyadenylate-binding protein 1 (Homo sapiens, UniProt P11940); test: PABP inhibition in translation initiation, SAR follow-up (AID 435018); assay type: functional
[12] = target: Induced myeloid leukemia cell differentiation protein Mcl-1 (Homo sapiens, UniProt Q07820); test: blockers of MCL1 binding to BIM peptide – biochemical, fluorescence polarization, BIM-BH3 peptide, 1536-well, dose response (AID 2217)
[13] = target: Bcl-2-like protein 1 (Homo sapiens, UniProt Q07817); test: blockers of BCLXL peptide binding – biochemical, fluorescence polarization, 1536-well, selectivity assay for MCL1 inhibitor project, dose response (AID 2218)
[14] = target: T3, Intestinal-type alkaline phosphatase; test: activation of human intestinal alkaline phosphatase – biochemical, dose response (AID 488873); assay type: functional
[15] = target: Intestinal-type alkaline phosphatase (Mus musculus, UniProt P24822); test: PubChem AID 488785; assay type: functional
[16] = target: T4, Alkaline phosphatase, tissue-nonspecific isozyme (Homo sapiens, UniProt P05186); test: TNAP enzyme inhibition by screening hits, dose response, selectivity assay for mouse IAP inhibitor project, biochemical, human TNAP, uHTS hits (AID 488906); assay type: functional
T4 sequence (P05186 whole entry): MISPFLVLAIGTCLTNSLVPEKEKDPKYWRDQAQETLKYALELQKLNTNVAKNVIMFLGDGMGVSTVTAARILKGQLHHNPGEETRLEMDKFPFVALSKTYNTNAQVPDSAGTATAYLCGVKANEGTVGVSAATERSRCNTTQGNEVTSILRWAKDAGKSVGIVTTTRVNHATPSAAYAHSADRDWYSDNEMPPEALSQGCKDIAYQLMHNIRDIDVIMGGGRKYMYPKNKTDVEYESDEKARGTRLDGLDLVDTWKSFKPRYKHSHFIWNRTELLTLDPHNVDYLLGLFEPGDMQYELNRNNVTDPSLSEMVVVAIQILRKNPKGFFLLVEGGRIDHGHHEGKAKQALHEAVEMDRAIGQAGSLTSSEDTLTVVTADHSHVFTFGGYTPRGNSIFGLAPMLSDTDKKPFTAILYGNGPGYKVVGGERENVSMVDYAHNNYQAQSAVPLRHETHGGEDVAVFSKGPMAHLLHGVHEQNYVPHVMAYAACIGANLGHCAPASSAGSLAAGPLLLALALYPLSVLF

[17] = target: DNA (cytosine-5)-methyltransferase 1 (Homo sapiens, UniProt P26358); test: inhibition of DNA methylation by DNMT1 – biochemical, fluorescent molecular beacon, confirmation (AID 602386); assay type: functional
[18] = target: T5, Small ubiquitin-related modifier 1 (Homo sapiens, UniProt P63165); test: SUMO1 protein interaction blockers, potency – biochemical, fluorescence polarization, uHTS hits, dose response (AID 624382); assay type: functional; settings: read-out: IC50_Mean
[19] = target: T5, Small ubiquitin-related modifier 1; test: SUMO1 protein-protein binding blockers, potency – biochemical, FRET, dose response (AID 624383); assay type: functional; settings: read-out: IC50_Mean
[20] = target: T6, Tyrosine-protein phosphatase non-receptor type 7 (Homo sapiens, UniProt P35236); test: redox-active compounds inhibiting HePTP phosphatase – biochemical, fluorescence, mechanism study (AID 2068); assay type: functional
T6 sequence (P35236 whole entry): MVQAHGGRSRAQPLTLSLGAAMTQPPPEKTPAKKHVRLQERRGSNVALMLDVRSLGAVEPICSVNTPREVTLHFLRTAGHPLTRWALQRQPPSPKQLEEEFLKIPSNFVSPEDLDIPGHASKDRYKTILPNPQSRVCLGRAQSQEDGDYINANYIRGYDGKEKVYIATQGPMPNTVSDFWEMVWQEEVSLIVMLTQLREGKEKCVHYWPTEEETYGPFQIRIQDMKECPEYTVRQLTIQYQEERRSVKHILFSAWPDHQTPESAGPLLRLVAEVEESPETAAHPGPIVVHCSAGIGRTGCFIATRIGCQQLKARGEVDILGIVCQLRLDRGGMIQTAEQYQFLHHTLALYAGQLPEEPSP

[21] = target: Integrin alpha-L (Mus musculus, UniProt P24063); test: modulators of CD8 T cell-vesicle binding, dose response, powder samples, mouse 2C CD8+ cells (AID 504565); assay type: functional
[22] = system: T-cell; test: loss of vesicle association with mouse CD8+ T cells – mouse 2C CD8+ T cells, flow cytometry, dose response (AID 485284); assay type: functional
[23] = NIH-3T3 fibroblast cytotoxicity, dose response, cytotoxicity control, cell-based, fluorescence, Alamar Blue, secondary assay (AID 2327); assay type: functional;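 further: NIH-3T3 mouse fibroblasts cultured with fluconazole at 8 µg/mL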
[24] = luciferase reporter signal suppression in cells – H4 neuroglioma cells, luminescence, dose response (AID 1990); assay type: functional, cell-based
[25] = Luminescence Cell-Based Dose Response HTS to Identify Inhibitors of 5'UTR Stem-Loop Driven Prion Protein mRNA Translation in H4 Neuroglioblastoma Cells. [Related pubchem assays: 1827 (Project Summary), 1813 (Primary HTS)]; assay type: functional
[26] = target: T7, Heat shock factor protein 1 (Mus musculus, UniProt P38532); test: decrease of HSF1-responsive luciferase luminescence – cell-based, NIH3T3, dose retest, confirmation (AID 2382); assay type: functional;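 further: NIH3T3 fibroblasts with HSF1-driven luciferase reporter stressed by proteasome inhibitor MG132; luminescence from HSF1-driven luciferase expression after 8 hours of MG132 stress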
T7 sequence (P38532 whole entry): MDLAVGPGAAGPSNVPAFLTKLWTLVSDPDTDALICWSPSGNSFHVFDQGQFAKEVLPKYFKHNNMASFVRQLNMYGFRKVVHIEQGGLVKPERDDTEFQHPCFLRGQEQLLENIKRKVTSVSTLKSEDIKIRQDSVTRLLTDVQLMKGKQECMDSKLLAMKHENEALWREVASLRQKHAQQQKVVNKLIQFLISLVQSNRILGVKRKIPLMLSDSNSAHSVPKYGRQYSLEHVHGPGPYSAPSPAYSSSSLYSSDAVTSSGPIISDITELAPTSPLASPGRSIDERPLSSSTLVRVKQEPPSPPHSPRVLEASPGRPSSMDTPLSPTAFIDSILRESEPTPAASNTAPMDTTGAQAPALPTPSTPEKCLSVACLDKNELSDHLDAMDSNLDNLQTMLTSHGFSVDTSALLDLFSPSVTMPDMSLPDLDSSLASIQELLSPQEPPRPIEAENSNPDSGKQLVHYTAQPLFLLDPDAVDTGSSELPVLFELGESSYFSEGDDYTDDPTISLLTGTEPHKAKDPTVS

[27] = alpha-synuclein stem-loop luciferase translation blockers – H4 neuroglioma cells, luminescence, confirmation (AID 1988); assay type: functional, cell-based
[28] = fluconazole-exposed Candida albicans growth modulators – fluorescence, retest, confirmation (AID 2467); assay type: functional, cell-based
[29] = target: Serine/threonine-protein phosphatase (Candida dubliniensis (strain CD36 / CBS 7987 / NCPF 3949 / NRRLY-17841) (Yeast), UniProt B9W6M3); test: blockers of CaCl2-induced CDRE-lacZ signaling – S. cerevisiae, luminescence, secondary, dose response (AID 2388); assay type: functional, cell-based;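 further: yeast reporter cells carrying a calcineurin-responsive lacZ construct stimulated with calcium chloride; luminescent beta-galactosidase reporter signal in whole cells rather than isolated phosphatase activity; potency for inhibition where a drop in reporter signal means calcineurin blockade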
[30] = target: NACHT, LRR and PYD domains-containing protein 3 (Homo sapiens, UniProt Q96P20); test: NALP3 inhibitors in yeast, dose response, luminescent (AID 488799); assay type: functional
[31] = THP-1 cell cytotoxicity, dose response, cytotoxicity control for non-replicating M. tuberculosis project (AID 489025); assay type: functional
[32] = HepG2 cell cytotoxicity, dose response, cytotoxicity control for non-replicating M. tuberculosis project (AID 489018); assay type: functional; settings: Mycobacterium tuberculosis
[33] = Vero E6 cell cytotoxicity, dose response, cytotoxicity control for non-replicating M. tuberculosis project, secondary assay (AID 492998); assay type: functional, VeroE6; settings: Vero C1008
[34] = cells; assay type: functional
[35] = target: ATP-dependent molecular chaperone HSP82 (Candida albicans (strain WO-1) (Yeast), UniProt C4YTQ8); test: steroid-induced GRE reporter decrease in yeast – S. cerevisiae, luminescence, Hsp90 inhibitor project, dose response (AID 2400); assay type: functional, cell-based;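 further: beta-galactosidase luminescence from glucocorticoid response element reporter as proxy for Hsp90 function; inhibitor potency where signal loss means Hsp90 inhibition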
[36] = target: Cytochrome P450 3A4 (Homo sapiens, UniProt P08684);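 further: CYP3A4 tested as one member of a cytochrome P450 panel screen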

T2 sequence (P41145 whole entry): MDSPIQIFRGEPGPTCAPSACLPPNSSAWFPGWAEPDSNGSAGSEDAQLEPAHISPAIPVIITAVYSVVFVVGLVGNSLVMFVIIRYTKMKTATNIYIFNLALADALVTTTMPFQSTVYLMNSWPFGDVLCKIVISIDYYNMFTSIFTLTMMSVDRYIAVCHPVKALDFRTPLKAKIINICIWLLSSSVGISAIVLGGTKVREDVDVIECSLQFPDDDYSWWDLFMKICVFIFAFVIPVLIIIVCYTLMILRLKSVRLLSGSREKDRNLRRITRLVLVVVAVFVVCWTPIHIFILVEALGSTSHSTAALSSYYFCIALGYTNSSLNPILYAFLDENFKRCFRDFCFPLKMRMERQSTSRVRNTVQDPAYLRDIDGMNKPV
T3 sequence (P09923 whole entry): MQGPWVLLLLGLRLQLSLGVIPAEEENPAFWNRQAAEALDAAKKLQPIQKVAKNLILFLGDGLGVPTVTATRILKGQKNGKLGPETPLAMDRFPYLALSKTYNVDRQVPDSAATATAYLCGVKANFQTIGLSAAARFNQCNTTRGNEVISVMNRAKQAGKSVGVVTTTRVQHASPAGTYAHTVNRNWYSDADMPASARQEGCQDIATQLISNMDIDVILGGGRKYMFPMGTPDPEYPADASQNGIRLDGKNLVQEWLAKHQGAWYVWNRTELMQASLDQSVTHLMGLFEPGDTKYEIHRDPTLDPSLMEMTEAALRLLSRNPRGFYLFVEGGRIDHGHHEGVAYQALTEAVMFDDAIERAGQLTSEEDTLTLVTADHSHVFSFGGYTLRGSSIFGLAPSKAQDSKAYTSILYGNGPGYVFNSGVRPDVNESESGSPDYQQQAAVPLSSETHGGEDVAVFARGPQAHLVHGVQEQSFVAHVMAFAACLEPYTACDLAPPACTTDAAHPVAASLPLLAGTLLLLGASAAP
T5 sequence (P63165 whole entry): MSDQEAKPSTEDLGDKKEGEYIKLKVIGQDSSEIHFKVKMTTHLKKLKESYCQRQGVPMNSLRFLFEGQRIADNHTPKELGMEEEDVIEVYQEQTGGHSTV
Sequence of DNA dC->dU-editing enzyme APOBEC-3A (P31941 whole entry): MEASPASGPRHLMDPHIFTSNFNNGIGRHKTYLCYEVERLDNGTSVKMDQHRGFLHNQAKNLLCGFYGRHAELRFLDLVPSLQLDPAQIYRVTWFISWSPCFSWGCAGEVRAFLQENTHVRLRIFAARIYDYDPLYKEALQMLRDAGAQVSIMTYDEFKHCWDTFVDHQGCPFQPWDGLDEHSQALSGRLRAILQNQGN
Sequence of Serine/threonine-protein phosphatase (B9W6M3 whole entry, the tested form may be a part): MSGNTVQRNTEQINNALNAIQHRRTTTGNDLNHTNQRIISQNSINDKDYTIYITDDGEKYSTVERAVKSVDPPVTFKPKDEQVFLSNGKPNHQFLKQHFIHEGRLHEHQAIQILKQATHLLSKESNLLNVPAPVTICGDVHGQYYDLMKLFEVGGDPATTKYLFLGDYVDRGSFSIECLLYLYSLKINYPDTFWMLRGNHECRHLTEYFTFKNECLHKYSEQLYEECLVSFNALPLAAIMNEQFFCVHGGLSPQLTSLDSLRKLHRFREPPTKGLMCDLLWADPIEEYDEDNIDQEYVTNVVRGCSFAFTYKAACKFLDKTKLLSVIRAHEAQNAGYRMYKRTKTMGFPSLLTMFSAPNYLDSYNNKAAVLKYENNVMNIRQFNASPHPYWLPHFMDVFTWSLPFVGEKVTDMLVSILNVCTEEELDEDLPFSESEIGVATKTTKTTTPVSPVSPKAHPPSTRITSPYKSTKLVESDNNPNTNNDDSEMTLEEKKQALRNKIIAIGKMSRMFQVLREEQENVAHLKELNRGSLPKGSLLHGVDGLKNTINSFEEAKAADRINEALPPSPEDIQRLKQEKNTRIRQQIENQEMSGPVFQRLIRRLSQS
Sequence of Intestinal-type alkaline phosphatase (Mus musculus, UniProt P24822) (P24822 whole entry): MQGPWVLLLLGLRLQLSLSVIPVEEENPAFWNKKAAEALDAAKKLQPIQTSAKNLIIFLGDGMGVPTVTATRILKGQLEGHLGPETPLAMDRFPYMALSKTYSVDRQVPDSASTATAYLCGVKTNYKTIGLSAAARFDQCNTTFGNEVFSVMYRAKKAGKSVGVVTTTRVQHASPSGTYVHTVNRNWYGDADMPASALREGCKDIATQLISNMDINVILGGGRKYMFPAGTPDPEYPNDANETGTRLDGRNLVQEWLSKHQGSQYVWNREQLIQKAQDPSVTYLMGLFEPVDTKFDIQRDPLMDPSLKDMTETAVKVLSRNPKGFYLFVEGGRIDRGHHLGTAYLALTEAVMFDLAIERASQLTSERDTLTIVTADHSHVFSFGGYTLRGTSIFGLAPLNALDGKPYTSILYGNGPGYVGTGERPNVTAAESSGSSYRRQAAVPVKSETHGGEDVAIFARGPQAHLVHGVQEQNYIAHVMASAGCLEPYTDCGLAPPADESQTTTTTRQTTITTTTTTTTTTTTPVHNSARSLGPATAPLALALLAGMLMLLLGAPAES
Sequence of Cytochrome P450 2C9 (P11712 whole entry): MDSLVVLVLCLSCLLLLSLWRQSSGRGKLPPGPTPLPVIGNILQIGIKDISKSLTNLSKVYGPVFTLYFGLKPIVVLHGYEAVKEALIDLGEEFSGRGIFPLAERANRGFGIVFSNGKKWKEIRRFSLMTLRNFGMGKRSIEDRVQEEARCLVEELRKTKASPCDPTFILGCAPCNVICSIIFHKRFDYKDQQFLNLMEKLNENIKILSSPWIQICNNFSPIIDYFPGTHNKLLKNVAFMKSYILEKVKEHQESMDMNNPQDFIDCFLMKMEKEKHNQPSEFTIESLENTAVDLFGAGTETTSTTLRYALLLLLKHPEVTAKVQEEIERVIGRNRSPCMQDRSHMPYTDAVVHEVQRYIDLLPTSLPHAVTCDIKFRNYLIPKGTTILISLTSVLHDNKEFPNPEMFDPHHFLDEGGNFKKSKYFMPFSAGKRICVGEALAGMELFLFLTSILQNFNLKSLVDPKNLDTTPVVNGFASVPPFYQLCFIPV
Sequence of NACHT, LRR and PYD domains-containing protein 3 (Q96P20 whole entry, the tested form may be a part): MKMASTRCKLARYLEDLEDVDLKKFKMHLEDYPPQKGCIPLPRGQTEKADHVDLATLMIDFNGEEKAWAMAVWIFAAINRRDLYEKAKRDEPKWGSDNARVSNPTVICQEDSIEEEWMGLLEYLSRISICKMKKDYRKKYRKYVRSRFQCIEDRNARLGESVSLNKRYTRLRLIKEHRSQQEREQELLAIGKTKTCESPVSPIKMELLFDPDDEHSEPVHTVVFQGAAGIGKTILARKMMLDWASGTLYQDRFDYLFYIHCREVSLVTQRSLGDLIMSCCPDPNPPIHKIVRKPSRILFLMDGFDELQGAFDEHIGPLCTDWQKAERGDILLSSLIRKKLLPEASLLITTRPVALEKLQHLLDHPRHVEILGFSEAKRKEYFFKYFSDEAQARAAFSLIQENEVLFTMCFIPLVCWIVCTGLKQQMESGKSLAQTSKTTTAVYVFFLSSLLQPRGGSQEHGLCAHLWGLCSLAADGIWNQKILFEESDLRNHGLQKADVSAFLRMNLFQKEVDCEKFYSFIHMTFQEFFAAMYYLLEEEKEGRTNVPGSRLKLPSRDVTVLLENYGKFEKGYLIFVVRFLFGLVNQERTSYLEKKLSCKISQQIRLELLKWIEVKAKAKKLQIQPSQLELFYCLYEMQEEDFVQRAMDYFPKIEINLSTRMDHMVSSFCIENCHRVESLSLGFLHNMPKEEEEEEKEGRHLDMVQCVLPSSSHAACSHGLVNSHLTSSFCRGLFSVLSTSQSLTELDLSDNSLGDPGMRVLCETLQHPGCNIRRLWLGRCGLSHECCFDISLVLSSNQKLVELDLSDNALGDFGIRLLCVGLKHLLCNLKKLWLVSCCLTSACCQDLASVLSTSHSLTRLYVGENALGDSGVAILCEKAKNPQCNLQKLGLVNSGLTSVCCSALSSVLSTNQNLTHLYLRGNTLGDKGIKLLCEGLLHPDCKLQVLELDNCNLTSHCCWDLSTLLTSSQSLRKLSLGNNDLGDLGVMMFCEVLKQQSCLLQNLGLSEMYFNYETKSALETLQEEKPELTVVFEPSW
Sequence of DNA dC->dU-editing enzyme APOBEC-3G (Q9HC16 whole entry): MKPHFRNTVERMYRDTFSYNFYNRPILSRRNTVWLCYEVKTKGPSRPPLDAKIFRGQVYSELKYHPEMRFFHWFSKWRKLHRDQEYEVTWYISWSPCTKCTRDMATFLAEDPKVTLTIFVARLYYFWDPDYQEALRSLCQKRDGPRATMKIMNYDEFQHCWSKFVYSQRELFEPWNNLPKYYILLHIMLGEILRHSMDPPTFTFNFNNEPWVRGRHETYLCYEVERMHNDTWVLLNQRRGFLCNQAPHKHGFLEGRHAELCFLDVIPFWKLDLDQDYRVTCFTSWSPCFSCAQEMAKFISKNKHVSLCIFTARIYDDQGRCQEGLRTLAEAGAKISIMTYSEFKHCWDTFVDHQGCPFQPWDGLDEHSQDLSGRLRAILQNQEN
Sequence of Induced myeloid leukemia cell differentiation protein Mcl-1 (Q07820 whole entry): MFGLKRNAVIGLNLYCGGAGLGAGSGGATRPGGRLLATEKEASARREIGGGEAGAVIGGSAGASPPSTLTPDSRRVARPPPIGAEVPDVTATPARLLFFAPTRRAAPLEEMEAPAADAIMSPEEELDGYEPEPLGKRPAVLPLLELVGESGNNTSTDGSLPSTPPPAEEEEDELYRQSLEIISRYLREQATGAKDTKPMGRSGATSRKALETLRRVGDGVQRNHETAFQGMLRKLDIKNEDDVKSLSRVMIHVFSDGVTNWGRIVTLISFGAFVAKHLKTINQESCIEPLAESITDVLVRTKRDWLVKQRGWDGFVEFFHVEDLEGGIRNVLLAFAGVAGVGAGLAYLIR
Sequence of Bcl-2-like protein 1 (Q07817 whole entry): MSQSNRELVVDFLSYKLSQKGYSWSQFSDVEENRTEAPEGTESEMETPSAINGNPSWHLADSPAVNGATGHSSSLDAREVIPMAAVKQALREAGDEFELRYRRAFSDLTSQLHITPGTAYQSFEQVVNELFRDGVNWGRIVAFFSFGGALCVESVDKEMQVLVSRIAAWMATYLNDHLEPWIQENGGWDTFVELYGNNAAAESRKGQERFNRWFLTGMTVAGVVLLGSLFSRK

In the case of `CCn1c(O)c(N=NC(=O)c2cccc(S(=O)(=O)N3CCCCC3)c2)c2ccccc21`, the EC50 [1] is reported as 2.37 µM (active).

For `COc1ccccc1-n1c(S)nnc1-c1ccccc1`, the IC50 [2] was > 100 µM (inactive) and the IC50 [3] was 4.11 µM (active).

For `COc1cc2c(cc1OC)C1(CCCC1)CNC2c1cccc([N+](=O)[O-])c1` (stereo unspecified), the IC50 [4] was 5.26 µM (active), the EC50 [5] was 8.91 µM (active) and the IC50 [6] was > 32 µM.

For `O=C(CN(Cc1cccs1)C(=O)c1cccnc1)NC1CCCCCC1`, the EC50 [7] was > 20 µM (inactive).

With `CCCn1c(/C=C/c2ccccc2)nc2ccccc21` the IC50 [8] was > 100 µM (inactive) and the AC50 [9] was “inconclusive”.

For `COc1ccc([N+](=O)[O-])cc1NC(=O)C(C)OC(=O)c1ccc(NC(N)=O)cc1` (stereo unspecified), the IC50 [10] was > 100 µM (inactive) and the IC50 [11] was > 100 µM (inactive).

With `O=S(=O)(c1cc(O)ccc1O)c1cccc2c(S(=O)(=O)c3cc(O)ccc3O)cccc12` the IC50 [12] was 8.31 µM (active), the IC50 [13] was > 109 µM (not active) and the EC50 [14] was 15 µM (active). For the same molecule, the IC50 [15] was 12.8 µM (active), the IC50 [16] was 38.9 µM (active) and the IC50 [17] was 3.81 µM (active). For the same molecule, the IC50 [18] was > 66.6 µM (inactive) and the IC50 [19] was 5.39 µM (active).

With `O=C(Nc1ccc2nc(-c3ccco3)c(-c3ccco3)nc2c1)NC1CCCCC1` the IC50 [20] was > 50 µM (inactive).

With `CCN(CC)S(=O)(=O)c1ccc(Cl)c(NC(=O)COC(=O)C2CCCCC2)c1` the EC50 [21] was 0.026 µM (active) and the EC50 [22] was 0.246 µM (active).

With `O=c1c2ccc(Cl)cc2nc(-c2cccc(C(F)(F)F)c2)n1O` the EC50 [23] was > 150 µM (inactive), the EC50 [24] was 10.4 µM (active) and the EC50 [25] was 9.65 µM (active). For the same molecule, the EC50 [26] was > 195 µM (not active), the EC50 [27] was 6.6 µM (active) and the EC50 [28] was 0.605 µM (active). The EC50 [29] was > 180 µM (inactive), the IC50 [30] was 11 µM (active) and the CC50 [31] was 2.96 µM (active). For the same molecule, the CC50 [32] was 11.9 µM (active), the CC50 [33] was 5.29 µM (active) and the IC50 [34] was 6.27 µM (active). The EC50 [35] was 15.6 µM (active) and the AC50 [36] was 28.2 µM (inconclusive).

— ChEMBL document CHEMBL1201862, “PubChem BioAssay data set” (2004)
